Assay results from US10563263B2, “Genetic polymorphisms associated with statin response and cardiovascular diseases, methods of detection and uses thereof” (CELERA CORPORATION, priority 2010, dated 2020).

System: CVD (CHD or stroke)
Test: Meta-analysis of CARE and WOSCOPS combined, synergy index, CVD endpoint
Format: in vivo, human
Text: Tables 4-5 provide meta-analyses of CARE and WOSCOPS combined (2nd section of each table) for two endpoints (CHD and CVD) and three genetic models (dominant, recessive, and additive), as well as logistic regression analyses of CARE (3rd section of each table) and WOSCOPS (4th section of each table) individually.
Tables 12 and 17 provide results of meta-analysis of the CARE and WOSCOPS sample sets combined by direct genotyping and by imputing genotypes.
“P” indicates the p-value, and “P(R)” (or “P.R.”) indicates the p-value random effect. Both of these are p-values corresponding to a statistical test of whether the combined synergy index is equal to one but use different assumptions to derive the p-value. “P” is calculated using a fixed effects model, and “P(R)” is calculated using a random effects model.
“OR” indicates the odds ratio (synergy index) calculated from a fixed effects model, and “OR(R)” (or “OR.R.”) indicates the odds ratio (synergy index) calculated from a random effects model.

## CC[C@H](C)C(=O)O[C@H]1C[C@H](O)C=C2C=C[C@H](C)[C@H](CC[C@@H](O)C[C@@H](O)CC(=O)O)[C@H]21 [Pravastatin, pravastatin]
rs483159 allele T DOMINANT Imputed
  OR(R): 1.4202
rs489441 allele G ADDITIVE Imputed
  OR(R): 1.4992
rs489441 allele G DOMINANT Imputed
  OR(R): 1.6072
rs937890 allele G (A1), DOMINANT, Imputed
  OR(R): 0.6731
rs949016 allele C (A1), ADDITIVE, Imputed
  OR(R): 1.5082
rs966583 allele A (A1), ADDITIVE, Imputed
  OR(R): 0.7272
rs966583 allele A (A1), DOMINANT, Imputed
  OR(R): 0.5916
rs974130 allele A (A1), RECESSIVE, Genotyped
  OR(R): 2.0112
rs977160 allele T (A1), ADDITIVE, Imputed
  OR(R): 1.5465
rs985375 allele A (A1), GENOTYPIC, Imputed
  OR(R): 2.8891
rs4760895 allele A ADDITIVE Imputed
  OR(R): 0.7392
rs4760895 allele A DOMINANT Imputed
  OR(R): 0.6285
rs4760895 allele A GENOTYPIC Imputed
  OR(R): 0.574
rs4764738 allele A ADDITIVE Imputed
  OR(R): 1.4051
rs4764738 allele A GENOTYPIC Imputed
  OR(R): 1.9728
rs4764974 allele T ADDITIVE Imputed
  OR(R): 1.3855
rs4764974 allele T GENOTYPIC Imputed
  OR(R): 1.9196
rs4798366 allele G RECESSIVE Imputed
  OR(R): 1.8332
rs4836502 allele T DOMINANT Imputed
  OR(R): 0.6712
rs4836507 allele C DOMINANT Imputed
  OR(R): 0.6775
rs4836744 allele A ADDITIVE Imputed
  OR(R): 0.7345
rs4836744 allele A DOMINANT Imputed
  OR(R): 0.6854
rs4848944 allele C RECESSIVE Genotyped
  OR(R): 0.5819
rs4851529 allele A DOMINANT Imputed
  OR(R): 0.6476
rs4851531 allele T DOMINANT Imputed
  OR(R): 0.6602
rs4858046 allele T GENOTYPIC Genotyped
  OR(R): 2.0533
rs4878214 allele A ADDITIVE Imputed
  OR(R): 0.6477
rs4880803 allele A ADDITIVE Imputed
  OR(R): 0.7694
rs4896568 allele T DOMINANT Imputed
  OR(R): 0.6231
rs4938851 allele T DOMINANT Imputed
  OR(R): 1.4515
rs4964416 allele C DOMINANT Imputed
  OR(R): 0.6251
rs5756669 allele C DOMINANT Imputed
  OR(R): 1.6531
rs6033138 allele C ADDITIVE Imputed
  OR(R): 1.3837
rs6033138 allele C GENOTYPIC Imputed
  OR(R): 1.9484
rs6033138 allele C RECESSIVE Imputed
  OR(R): 1.6769
rs6040619 allele C ADDITIVE Imputed
  OR(R): 1.3881
rs6040619 allele C GENOTYPIC Imputed
  OR(R): 2.0334
rs6040619 allele C RECESSIVE Imputed
  OR(R): 1.7879
rs6040625 allele T ADDITIVE Imputed
  OR(R): 1.3888
rs6040625 allele T GENOTYPIC Imputed
  OR(R): 2.0214
rs6040625 allele T RECESSIVE Imputed
  OR(R): 1.7684
rs6040630 allele A ADDITIVE Imputed
  OR(R): 1.3767
rs6040630 allele A GENOTYPIC Imputed
  OR(R): 1.9741
rs6040630 allele A RECESSIVE Imputed
  OR(R): 1.7241
rs6040633 allele A ADDITIVE Imputed
  OR(R): 1.3703
rs6040633 allele A GENOTYPIC Imputed
  OR(R): 1.9475
rs6040633 allele A RECESSIVE Imputed
  OR(R): 1.6999
rs6040634 allele T ADDITIVE Imputed
  OR(R): 1.3722
rs6040634 allele T GENOTYPIC Imputed
  OR(R): 1.9531
rs6040634 allele T RECESSIVE Imputed
  OR(R): 1.7021
rs6040636 allele T ADDITIVE Imputed
  OR(R): 1.3761
rs6040636 allele T GENOTYPIC Imputed
  OR(R): 1.9585
rs6040636 allele T RECESSIVE Imputed
  OR(R): 1.7021
rs6040638 allele C ADDITIVE Imputed
  OR(R): 1.3722
rs6040638 allele C GENOTYPIC Imputed
  OR(R): 1.9531
rs6040638 allele C RECESSIVE Imputed
  OR(R): 1.7021
rs6040644 allele A ADDITIVE Imputed
  OR(R): 1.3722
rs9309988 allele G (A1), DOMINANT, Imputed
  OR(R): 1.9381
rs9309989 allele C (A1), DOMINANT, Genotyped
  OR(R): 1.9491
rs9310221 allele A (A1), DOMINANT, Imputed
  OR(R): 1.8519
rs9327555 allele T (A1), DOMINANT, Imputed
  OR(R): 0.5753
rs9454967 allele G (A1), ADDITIVE, Imputed
  OR(R): 2.1926
rs9454967 allele G (A1), DOMINANT, Imputed
  OR(R): 2.4795
rs9471295 allele T (A1), DOMINANT, Imputed
  OR(R): 1.5391
rs9477007 allele A (A1), ADDITIVE, Imputed
  OR(R): 1.429
rs9477007 allele A (A1), GENOTYPIC, Imputed
  OR(R): 2.0759
rs9487279 allele T (A1), DOMINANT, Imputed
  OR(R): 0.5948
rs9555973 allele G (A1), ADDITIVE, Imputed
  OR(R): 0.5479
rs9555973 allele G (A1), DOMINANT, Imputed
  OR(R): 0.5157
rs9557510 allele G (A1), ADDITIVE, Imputed
  OR(R): 1.6102
rs9557510 allele G (A1), DOMINANT, Imputed
  OR(R): 1.7706
rs9560584 allele T (A1), DOMINANT, Imputed
  OR(R): 0.512
rs9588770 allele T (A1), DOMINANT, Imputed
  OR(R): 0.5187
rs9588848 allele C (A1), ADDITIVE, Imputed
  OR(R): 0.5369
rs9588848 allele C (A1), DOMINANT, Imputed
  OR(R): 0.5009
rs9812206 allele G (A1), ADDITIVE, Imputed
  OR(R): 0.4469
rs9812206 allele G (A1), DOMINANT, Imputed
  OR(R): 0.4369
rs9813552 allele G (A1), ADDITIVE, Imputed
  OR(R): 0.4493
rs9813552 allele G (A1), DOMINANT, Imputed
  OR(R): 0.4387
rs9815037 allele T (A1), ADDITIVE, Imputed
  OR(R): 0.4461
rs9815037 allele T (A1), DOMINANT, Imputed
  OR(R): 0.4354
rs9825349 allele A (A1), ADDITIVE, Imputed
  OR(R): 0.4461
rs9825349 allele A (A1), DOMINANT, Imputed
  OR(R): 0.4354
rs9834217 allele T (A1), ADDITIVE, Imputed
  OR(R): 0.4466
rs9834217 allele T (A1), DOMINANT, Imputed
  OR(R): 0.4359
rs9840460 allele T (A1), ADDITIVE, Imputed
  OR(R): 0.4461
rs9840460 allele T (A1), DOMINANT, Imputed
  OR(R): 0.4354
rs9840756 allele A (A1), ADDITIVE, Imputed
  OR(R): 0.4458
rs9840756 allele A (A1), DOMINANT, Imputed
  OR(R): 0.435
rs9844801 allele C (A1), DOMINANT, Imputed
  OR(R): 1.9381
rs9869187 allele C (A1), ADDITIVE, Imputed
  OR(R): 0.4651
rs9869187 allele C (A1), DOMINANT, Imputed
  OR(R): 0.4704
rs9872327 allele T (A1), DOMINANT, Imputed
  OR(R): 1.9381
rs9881685 allele A (A1), ADDITIVE, Imputed
  OR(R): 0.4438
rs9881685 allele A (A1), DOMINANT, Imputed
  OR(R): 0.4332
rs9909499 allele C (A1), DOMINANT, Imputed
  OR(R): 1.4669
rs9911847 allele G (A1), DOMINANT, Imputed
  OR(R): 0.6755
rs9946886 allele G (A1), RECESSIVE, Imputed
  OR(R): 0.3084
rs9958823 allele A (A1), ADDITIVE, Imputed
  OR(R): 1.5292
rs9965248 allele T (A1), ADDITIVE, Imputed
  OR(R): 1.4965
